Experimental data reported in patent publication US20020137929A1, “1 - (3-heterocyclylphenyl) isothiourea, -isourea, -guanidine and -amidine herbicidal agents” (Intellectual Property Department, BASF Aktiengesellschaft, priority 1998, published 2002).

What was measured:
[1] = tested on: ABUTH (Velvetleaf); assay: Postemergence herbicidal evaluation; type: in vivo, Abutilon theophrasti; conditions: postemergence
In short: (§1)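 Visual 0-9 injury score (stand, vigor, malformation, size, chlorosis, appearance vs untreated) taken four to five weeks post-spray, averaged across repeat tests. Test plants about two weeks old; foliar spray of acetone/water (1:1) with 0.5% surfactant delivering ~0.0156-0.500 kg active/ha.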

[2] = tested on: AMBEL (Ragweed, Common); assay: Postemergence herbicidal evaluation; type: in vivo, Ambrosia artemisifolia; conditions: postemergence
In short: as §1

[3] = tested on: CHEAL (Lambsquarters, Common); assay: Postemergence herbicidal evaluation; type: in vivo, Chenopodium album; conditions: postemergence
In short: as §1

[4] = tested on: ECHCG (Barnyardgrass); assay: Postemergence herbicidal evaluation; type: in vivo, Echinochloa crus-galli; conditions: postemergence
In short: as §1

[5] = tested on: GLXMAW (Soybean, Williams); assay: Postemergence herbicidal evaluation; type: in vivo, Glycine max, (L.) Merr. cv Williams; conditions: postemergence
In short: as §1

[6] = tested on: ORYSAT (Rice, Tebonnet); assay: Postemergence herbicidal evaluation; type: in vivo, Oryza sativa, (L.) Tebonnet; conditions: postemergence
In short: as §1

[7] = tested on: ZEAMX (Corn, Field); assay: Postemergence herbicidal evaluation; type: in vivo, Zea mays; conditions: postemergence
In short: as §1

[8] = tested on: AMBEL (Ragweed, Common); assay: Preemergence herbicidal evaluation; type: in vivo, Ambrosia artemisifolia; conditions: rated 4-5 weeks after treatment, rating scale 0-9
In short: (§2)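 Seeds were mixed with potting soil and planted on about one inch of soil, then sprayed with test compound in aqueous acetone at about 0.0156 to 0.500 kg per hectare. Plants grew under standard greenhouse care and were visually rated 0-9 against untreated controls 4-5 weeks post-treatment.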

[9] = tested on: CASOB (Sicklepod); assay: Preemergence herbicidal evaluation; type: in vivo, Cassia obtusifolia; conditions: rated 4-5 weeks after treatment, rating scale 0-9
In short: as §2

[10] = tested on: CHEAL (Lambsquarters, Common); assay: Preemergence herbicidal evaluation; type: in vivo, Chenopodium album; conditions: rated 4-5 weeks after treatment, rating scale 0-9
In short: as §2

[11] = tested on: GALAP (Galium); assay: Preemergence herbicidal evaluation; type: in vivo, Galium aparine; conditions: rated 4-5 weeks after treatment, rating scale 0-9
In short: as §2

[12] = tested on: CYPSE (Flatsedge); assay: Preemergence weed control under flooded paddy conditions; type: in vivo, Cyperus serotinus; conditions: rated 3-4 weeks after treatment
In short: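 Flooded-pot preemergence screen with silt loam and seeds in the upper 0.5 cm. Dose about 0.0313 to 0.500 kg/ha, delivered into flood water; visual 0-9 score after 3 to 4 weeks.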

COc1ccc(CN2C(=O)CSC2=Nc2cc(-n3c(=O)cc(C(F)(F)F)n(C)c3=O)c(F)cc2Cl)c(OC)c1 [Compound 139, 3-{4-Chloro-5-{[3-(2,4-dimethoxybenzyl)-4-oxo-2-thiazolidinylidene]amino}-2-fluorophenyl}-1-methyl-6-(trifluoromethyl)-2,4(1H,3H)-pyrimidinedione]
herbicidal rating ABUTH ([1]; rate 0.0156 kg/ha): 9.0 | herbicidal rating ABUTH ([1]; rate 0.0313 kg/ha): 9.0 | herbicidal rating ABUTH ([1]; rate 0.0625 kg/ha): 9.0 | herbicidal rating AMBEL ([2]; rate 0.0156 kg/ha): 9.0 | herbicidal rating AMBEL ([2]; rate 0.0313 kg/ha): 9.0 | herbicidal rating AMBEL ([2]; rate 0.0625 kg/ha): 7.0 | herbicidal rating CHEAL ([3]; rate 0.0156 kg/ha): 9.0 | herbicidal rating CHEAL ([3]; rate 0.0313 kg/ha): 9.0 | herbicidal rating CHEAL ([3]; rate 0.0625 kg/ha): 9.0 | herbicidal rating ECHCG ([4]; rate 0.0156 kg/ha): 3.0 | herbicidal rating ECHCG ([4]; rate 0.0313 kg/ha): 2.0 | herbicidal rating ECHCG ([4]; rate 0.0625 kg/ha): 3.0 | herbicidal rating GLXMAW ([5]; rate 0.0156 kg/ha): 5.5 | herbicidal rating GLXMAW ([5]; rate 0.0313 kg/ha): 6.5 | herbicidal rating GLXMAW ([5]; rate 0.0625 kg/ha): 7.0 | herbicidal rating ORYSAT ([6]; rate 0.0156 kg/ha): 2.0 | herbicidal rating ORYSAT ([6]; rate 0.0313 kg/ha): 3.0 | herbicidal rating ORYSAT ([6]; rate 0.0625 kg/ha): 3.5 | herbicidal rating ZEAMX ([7]; rate 0.0156 kg/ha): 4.5 | herbicidal rating ZEAMX ([7]; rate 0.0313 kg/ha): 4.5 | herbicidal rating ZEAMX ([7]; rate 0.0625 kg/ha): 5.0 | Preemergence herbicidal rating AMBEL ([8]; rate 0.0156 kg/ha): 0.0 | Preemergence herbicidal rating AMBEL ([8]; rate 0.0313 kg/ha): 1.0 | Preemergence herbicidal rating AMBEL ([8]; rate 0.0625 kg/ha): 0.0 | Preemergence herbicidal rating AMBEL ([8]; rate 0.1250 kg/ha): 3.0 | Preemergence herbicidal rating AMBEL ([8]; rate 0.2500 kg/ha): 4.0 | Preemergence herbicidal rating CASOB ([9]; rate 0.0156 kg/ha): 0.0 | Preemergence herbicidal rating CASOB ([9]; rate 0.0313 kg/ha): 0.0 | Preemergence herbicidal rating CASOB ([9]; rate 0.0625 kg/ha): 1.0 | Preemergence herbicidal rating CASOB ([9]; rate 0.1250 kg/ha): 2.0 | Preemergence herbicidal rating CASOB ([9]; rate 0.2500 kg/ha): 1.0 | Preemergence herbicidal rating CHEAL ([10]; rate 0.0156 kg/ha): 0.0 | Preemergence herbicidal rating CHEAL ([10]; rate 0.0313 kg/ha): 7.0 | Preemergence herbicidal rating CHEAL ([10]; rate 0.0625 kg/ha): 9.0 | Preemergence herbicidal rating CHEAL ([10]; rate 0.1250 kg/ha): 9.0 | Preemergence herbicidal rating CHEAL ([10]; rate 0.2500 kg/ha): 9.0 | Preemergence herbicidal rating GALAP ([11]; rate 0.0156 kg/ha): 0.0 | Preemergence herbicidal rating GALAP ([11]; rate 0.0313 kg/ha): 0.0 | Preemergence herbicidal rating GALAP ([11]; rate 0.0625 kg/ha): 0.0 | Preemergence herbicidal rating GALAP ([11]; rate 0.1250 kg/ha): 0.0 | Preemergence herbicidal rating GALAP ([11]; rate 0.2500 kg/ha): 0.0 | herbicidal effect rating, CYPSE ([12]; 0.1250 kg/ha): 0.0 | herbicidal effect rating, CYPSE ([12]; 0.2500 kg/ha): 0.0

Cn1c(C(F)(F)F)cc(=O)n(-c2cc(N=C3SCC(=O)N3C3CC3)c(Cl)cc2F)c1=O [Compound 152, 3-{4-Chloro-5-[(3-cyclopropyl-4-oxo-2-thiazolidinylidene)amino]-2-fluorophenyl}-1-methyl-6-(trifluoromethyl)-2,4(1H,3H)-pyrimidinedione]
herbicidal rating ABUTH ([1]; rate 0.0156 kg/ha): 6.0 | herbicidal rating ABUTH ([1]; rate 0.0313 kg/ha): 4.0 | herbicidal rating ABUTH ([1]; rate 0.0625 kg/ha): 9.0 | herbicidal rating AMBEL ([2]; rate 0.0156 kg/ha): 2.0 | herbicidal rating AMBEL ([2]; rate 0.0313 kg/ha): 4.0 | herbicidal rating AMBEL ([2]; rate 0.0625 kg/ha): 9.0 | herbicidal rating CHEAL ([3]; rate 0.0156 kg/ha): 0.0 | herbicidal rating CHEAL ([3]; rate 0.0313 kg/ha): 4.0 | herbicidal rating CHEAL ([3]; rate 0.0625 kg/ha): 9.0 | herbicidal rating ECHCG ([4]; rate 0.0156 kg/ha): 1.0 | herbicidal rating ECHCG ([4]; rate 0.0313 kg/ha): 2.0 | herbicidal rating ECHCG ([4]; rate 0.0625 kg/ha): 2.0 | herbicidal rating GLXMAW ([5]; rate 0.0156 kg/ha): 4.0 | herbicidal rating GLXMAW ([5]; rate 0.0313 kg/ha): 4.5 | herbicidal rating GLXMAW ([5]; rate 0.0625 kg/ha): 6.0 | herbicidal rating ORYSAT ([6]; rate 0.0156 kg/ha): 1.5 | herbicidal rating ORYSAT ([6]; rate 0.0313 kg/ha): 2.0 | herbicidal rating ORYSAT ([6]; rate 0.0625 kg/ha): 3.0 | herbicidal rating ZEAMX ([7]; rate 0.0156 kg/ha): 4.0 | herbicidal rating ZEAMX ([7]; rate 0.0313 kg/ha): 5.0 | herbicidal rating ZEAMX ([7]; rate 0.0625 kg/ha): 6.5 | Preemergence herbicidal rating AMBEL ([8]; rate 0.0313 kg/ha): 0.0 | Preemergence herbicidal rating AMBEL ([8]; rate 0.0625 kg/ha): 0.0 | Preemergence herbicidal rating AMBEL ([8]; rate 0.1250 kg/ha): 2.0 | Preemergence herbicidal rating AMBEL ([8]; rate 0.2500 kg/ha): 6.0 | Preemergence herbicidal rating CASOB ([9]; rate 0.0313 kg/ha): 0.0 | Preemergence herbicidal rating CASOB ([9]; rate 0.0625 kg/ha): 1.0 | Preemergence herbicidal rating CASOB ([9]; rate 0.1250 kg/ha): 0.0 | Preemergence herbicidal rating CASOB ([9]; rate 0.2500 kg/ha): 3.0 | Preemergence herbicidal rating CHEAL ([10]; rate 0.0313 kg/ha): 2.0 | Preemergence herbicidal rating CHEAL ([10]; rate 0.0625 kg/ha): 9.0 | Preemergence herbicidal rating CHEAL ([10]; rate 0.1250 kg/ha): 9.0 | Preemergence herbicidal rating CHEAL ([10]; rate 0.2500 kg/ha): 9.0 | Preemergence herbicidal rating GALAP ([11]; rate 0.0313 kg/ha): 0.0 | Preemergence herbicidal rating GALAP ([11]; rate 0.0625 kg/ha): 0.0 | Preemergence herbicidal rating GALAP ([11]; rate 0.1250 kg/ha): 1.0 | Preemergence herbicidal rating GALAP ([11]; rate 0.2500 kg/ha): 6.0 | herbicidal effect rating, CYPSE ([12]; 0.0625 kg/ha): 0.0 | herbicidal effect rating, CYPSE ([12]; 0.1250 kg/ha): 0.0 | herbicidal effect rating, CYPSE ([12]; 0.2500 kg/ha): 0.0
